Values of other authors in EP0324210A1 (UOP, priority 1988, dated 1989).

Settings: aqueous solution, 25°C

For `O=C(O)CC(O)(CC(=O)O)C(=O)O` [citric acid], which “acid dissociation constant pKa₃” value is on record?
Its value is 5.40.
